One assay deals with H9c2. As to the kind of experiment: cardiomyocyte survival under oxidative or metabolic stress – cell-based, panel, H9c2 and HL-1, ATP luminescence, set 2, SAR follow-up (AID 651871).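 Also: cells exposed to stressor for 2 h before ATP readout; potency for protection of cells against peroxide damage not for cytotoxicity.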 To be noted: H9c2/HL-1 cardiomyocytes.
Another assay has as its system HL-1. Described as above. The following applies: H9c2/HL-1 cardiomyocytes.
The mark [1] stands for this setting: 2-deoxyglucose stress, with 2-deoxyglucose, mean of runs.
[2] abbreviates: H2O2 oxidative stress, with H2O2, mean of runs.

Several values for one entry are separate records, joined by “and”; a condition that tells them apart may be missing. Equal values may be shown once. Activity calls are given as the source filed them.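 The calls were made as follows: active = compound whose mean IC50 is 10 µM or lower in every cell protection panel where tested; inactive = the rest.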 Where only a bound is given, the exact number is not on record here.

As to `CCOC(=O)c1cccc(NC(=O)CNC(=O)c2cc(-c3cc(OC)c(OC)c(OC)c3)nc3ccccc23)c1`, the IC50 (as a rule, the point on the concentration scale where inhibition reaches its midpoint) with H9c2 (setting [1]) was 2.72 µM; in the assay on H9c2 (setting [2]), 0.28 µM; in the assay with HL-1 (setting [1]) it was 2.9 µM; in the assay with HL-1 (setting [2]), 3.41 µM.
Take `COc1cc(-c2cc(C(=O)Nc3cccc(C(=O)NCc4ccccc4)c3)c3ccccc3n2)cc(OC)c1OC`: the IC50 is 0.411 µM in the assay with H9c2 (setting [2]) and 3.97 µM in the assay on HL-1 (setting [2]).
As to `COc1ccc2nc(-c3cc(OC)c(OC)c(OC)c3)cc(C(=O)NCC(=O)Nc3ccc(C(C)=O)cc3)c2c1`, the IC50 in the assay on H9c2 (setting [1]) is 3.87 µM; with H9c2 (setting [2]) it was 0.634 µM and 0.44 µM; in the assay with HL-1 (setting [1]), 4.3 µM; in the assay on HL-1 (setting [2]), 6.53 µM and 3.98 µM.
`COc1ccc2c(c1OC)C(=O)N1c3ccccc3C(=O)N(Cc3cccc(Cl)c3Cl)C21` (centres undefined): the IC50 was 4.57 µM and 6.37 µM and > 79 µM (inactive) in the assay on H9c2 (setting [1]); 0.215 µM and 0.391 µM and 11.7 µM (inactive) in the assay on H9c2 (setting [2]); 2.65 µM and 3.05 µM and > 79 µM (inactive) in the assay on HL-1 (setting [1]); > 79 µM (inactive) in the assay on HL-1 (setting [2]).

Values taken from PubChem BioAssay AID651871 (Sanford-Burnham Center for Chemical Genomics, 2012).
